According to US20250127863A1, “ANTIMICROBIAL PEPTIDE FOR ONYCHOMYCOSIS” (CBMR SCIENTIFIC NANOSCIENCE B.V., priority 2019, published 2025):
No end group written: not given here.

Legend:
[1] = system: Trichophyton interdigitalis; format: cell-based
Procedure: (§1) The minimum inhibitory concentration (MIC) value is defined as the lowest sample concentration that inhibited growth. In the Examples, the MIC90 value is presented, which MIC90 values are determined according to established methods known to the person with the skills in the relevant art. Experiments; 1×10E5 CFU of various strains/ml were incubated for 24-48 h at 37° C. in 4× diluted medium of RPMI 1640 with the indicated concentrations of antimicrobial peptide hLF(1-11) [SEQ ID NO: 3]. As controls various strains cells were incubated for 24-48 h at 37° C. with no agent (antimicrobial peptide), and subsequently, growth of the microbial organism (e.g. yeast, bacterium) was monitored by using spectrophotometry with a spectrophotometer at 620 nm. […] ND=Not done. Representative single assay data are listed rather than a range, for clarity reasons and for ease of comparison of peptide efficacy. The MIC was calculated as the lowest antibiotic (antimicrobial peptide) concentration at which growth of the assessed yeast or bacterium (microbe) was inhibited (inhibitory concentration IC90).
(§2) For two patients D, E who were treated with a solution comprising the high concentration of the antimicrobial peptide, in their nail samples strains of Trichophyton interdigitalis and Hypercrealis spp. were determined. […]

Hypercrealis spp. = format: cell-based; details: Hypercrealis spp. strain from nail samples of patients D, E
Procedure: as §1, §2

C. kefyr = assay: MIC90 growth inhibition; format: cell-based, Candida kefyr; details: RPMI 1640 one-fourth strength
Procedure: as §1

C. parapsilosis CBS #7 = assay: MIC90 growth inhibition; format: cell-based, Candida parapsilosis; details: RPMI 1640 one-fourth strength
Procedure: as §1

C. parapsilosis CMC-2039 = assay: MIC90 growth inhibition; format: cell-based, Candida parapsilosis; details: RPMI 1640 one-fourth strength
Procedure: as §1

C. parapsilosis CBS-604 = assay: MIC90 growth inhibition; format: cell-based, Candida parapsilosis; details: RPMI 1640 one-fourth strength
Procedure: as §1

C. parapsilosis CBS #61 = assay: MIC90 growth inhibition; format: cell-based, Candida parapsilosis; details: RPMI 1640 one-fourth strength
Procedure: as §1

C. parapsilosis CBS #57 = assay: MIC90 growth inhibition; format: cell-based, Candida parapsilosis; details: RPMI 1640 one-fourth strength
Procedure: as §1

S. epidermidis Type 2163 = assay: MIC90 growth inhibition; format: cell-based, Staphylococcus epidermidis; details: RPMI 1640 one-fourth strength
Procedure: as §1

C. tropicalis (LUMC) = assay: MIC90 growth inhibition; format: cell-based, Candida tropicalis; details: RPMI 1640 one-fourth strength
Procedure: as §1

C. tropicalis spp. = assay: MIC90 growth inhibition; format: cell-based, Candida tropicalis; details: RPMI 1640 one-fourth strength
Procedure: as §1

Sequence: GRRRRSVQWCA [hLF1-11, Gly Arg Arg Arg Arg Ser Val Gln Trp Cys Ala]
- MIC90 value [1]: 50 µg/mL
- MIC90 value (Hypercrealis spp.): 50 µg/mL
- Inhibitory concentration MIC (MIC90) (C. kefyr): MIC = 2.5-12.5 μg/ml
- Inhibitory concentration MIC (MIC90) (C. parapsilosis CBS #7): MIC = 25-50 μg/mL
- Inhibitory concentration MIC (MIC90) (C. parapsilosis CMC-2039; C. parapsilosis CMC-2039, second listing): MIC = 25 μg/ml
- Inhibitory concentration MIC (MIC90) (C. parapsilosis CMC-2039): MIC = 25 μg/mL
- Inhibitory concentration MIC (MIC90) (C. parapsilosis CBS-604; C. parapsilosis CBS-604, second listing): MIC = 25 μg/ml
- Inhibitory concentration MIC (MIC90) (C. parapsilosis CBS-604): MIC = 25 μg/mL
- Inhibitory concentration MIC (MIC90) (C. parapsilosis CBS #61): MIC = 25-50 μg/mL
- Inhibitory concentration MIC (MIC90) (C. parapsilosis CBS #57): MIC = 25-50 μg/mL
- Inhibitory concentration MIC (MIC90) (S. epidermidis Type 2163): MIC = 3.1 μg/ml
- Inhibitory concentration MIC (MIC90) (C. tropicalis (LUMC)): MIC = 25 μg/mL
- Inhibitory concentration MIC (MIC90) (C. tropicalis (LUMC); second listing): MIC = 25 μg/ml
- Inhibitory concentration MIC (MIC90) (C. tropicalis spp.): MIC = 12.5-100 μg/mL
